Consider 6 compounds from patent US11273153B2, “MAPK inhibitors” (EverBrilliant Pharma Pty Ltd, priority 2014, dated 2022).

Values joined by “and” are separate entries in the source; they are usually repeats but may differ in a detail not shown here. Identical values can stand only once. Like-named read-outs stand apart in the source and are kept apart here.

By half-life is commonly meant how long it takes for the measured level to halve. Broadly, the Ki is a measure of affinity in units of concentration, obtained from inhibition or displacement.

The nature of data set [1]: Acute toxicity study in rats. It is filed as in vivo, male Sprague-Dawley (SD) rats. The conditions noted are these: two weeks. As for the experimental part:
(§1) An acute toxicity study of compound 4.5 was carried out. In this toxicity study, four male Sprague-Dawley (SD) rats received 150 mg/kg of compound 4.5 twice daily by oral gavage over a period of two weeks. The control group consisting of four male SD rats received 1% carboxymethylcellulose (CMC) in water. Blood samples were collected for analysis at 1 and 12 hours after the first dose and at the 7 and 14 day troughs. The rats were then sacrificed and organs collected for analysis. Individual body weights were measured at day −1, 2, 4, 7, 10 and 14. FIG. 7 indicates the blood results from an acute toxicity study for 4.5.
(§2) The full blood, haemoglobin, haemocrit, red cell count, mean corpuscular haemoglobin, mean corpuscular volume, red cell distribution width, mean corpuscular haemoglobin concentration and liver function were all assessed. […] The CDCO analysed blood samples using HPLC-MS to determine the concentrations of compound 4.5 in rat plasma at different time points (Table 3).

The nature of data set [2]: Plasma concentrations in the acute toxicity study (HPLC-MS). The class given is in vivo, rat. As to conditions: for Concentration in rat plasma: 150 mg/kg twice daily oral gavage, individual rats 1-4, rat 2 atypical and excluded. The procedure:
as §1, §2

A short description of data set [3]: In vitro metabolic stability, mouse liver microsomes. The class given is in vitro ADME. The procedure:
(§3) The metabolic stability of compounds 4.1 and 4.5 was assayed in an in vitro assay which employed liver microsomes. Liver microsomes are valuable models for the determination of hepatic clearance because they contain a number of drug metabolising enzymes, such as the CYP450 enzymes. An in vitro metabolic stability study was conducted using human, rat and mouse liver microsomes as a prediction of the in vivo metabolic clearance. […] From the results, the rates of apparent compound degradation in human, rat and mouse liver microsomes were in agreement with the moderate to high microsome-predicted extraction ratios (EH) for both compounds 4.1 and 4.5.
Background: Liver microsomes are a subcellular fraction often used to study metabolism.

In data set [4] the test system is neonatal rat cardiac fibroblasts (NCF). The data set is described as follows: NCF cell viability (MTT assay). The conditions noted are these: 25 μM concentration. The class given is cell-based. The procedure:
Measurement of NCF cell viability was carried out using a published method with the 3-(4,5-dimethylthiazol-2-yl)-2,5-diphenyltetraxolium bromide (MTT) assay.
(Tetrazolium dyes change colour on reduction, which living cells bring about.)

Data set [5] is described as follows: In vitro metabolic stability, rat liver microsomes. It is filed as in vitro ADME. As for the experimental part: as §3
A short description of data set [6]: In vitro metabolic stability, human liver microsomes. The class given is in vitro ADME. As for the experimental part: as §3
In data set [7] the target is inactive non-phosphorylated p38α MAPK (Homo sapiens (Human), UniProt Q16539). The data set is described as follows: Fluorescence polarisation (FP) binding assay, inactive enzyme. As for the experimental part: (§4) A number of compounds were also assessed for the inhibition of p38α MAPK activity (www.kinase-screen.mrc.ac.uk) in which a radioactive (^33P-labelled ATP) filter binding assay was used to directly measure phosphate incorporation. Table 1 summarises the binding affinities of the synthesised compounds to both forms of the enzyme as well as the inhibitory activities against p38α MAPK. By way of enabling a comparison with a non-thiophene compound the biological testing was also carried out for known inhibitor RWJ67657, shown in table 1.
inactive non-phosphorylated p38α MAPK, sequence (Q16539 whole entry): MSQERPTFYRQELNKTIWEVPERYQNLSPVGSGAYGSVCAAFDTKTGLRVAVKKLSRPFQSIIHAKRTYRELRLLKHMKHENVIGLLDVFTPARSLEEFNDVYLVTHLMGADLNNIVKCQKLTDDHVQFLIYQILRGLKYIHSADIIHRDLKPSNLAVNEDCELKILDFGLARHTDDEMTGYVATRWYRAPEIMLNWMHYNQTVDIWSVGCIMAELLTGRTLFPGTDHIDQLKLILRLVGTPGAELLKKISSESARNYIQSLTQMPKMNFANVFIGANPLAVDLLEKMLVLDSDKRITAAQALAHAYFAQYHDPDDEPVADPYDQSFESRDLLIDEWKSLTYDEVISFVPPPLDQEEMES
(§5) FP signals were measured with a PHERAstar microplate reader (BMG Labtech) using black, low-binding half-area 96 well plates (Corning). Each binding data point was carried out in duplicate or triplicate. Data were recorded in millipolarisation (mP) units and measured at an excitation wavelength of 485 nm and an emission wavelength of 520 nm. Tris(hydroxymethyl)aminomethane (Tris) assay buffer was used in all binding experiments and consisted of 10 mM Tris, […] potassium chloride, and 3.5 mM 3-((3-cholamidopropyl)dimethylammonium)-1-propanesulfonate (Chaps) at pH 8.0.
(§6) Test compounds were prepared from dimethylsulfoxide stocks (10 mM). […] Plates were incubated at room temperature for 1 hour and FP signals were recorded. For binding experiments to active p38α MAPK, the FP signals were recorded after 2 hours incubation at room temperature. Data is represented as mean±SEM from two to three independent experiments.
Background: Fluorescence polarisation rises when a labelled molecule tumbles more slowly, as on binding a larger partner.

The target of data set [8] is active phosphorylated p38α MAPK (Homo sapiens (Human), UniProt Q16539). Kind of data set: Fluorescence polarisation (FP) binding assay, active enzyme. The procedure: as §4, §5, §6
active phosphorylated p38α MAPK, sequence (Q16539 whole entry): as above
In data set [9] the target is p38α MAPK activation (phosphorylation) by MKK6 (Homo sapiens (Human), UniProt Q16539). The data set is described as follows: In vitro activation assay (phosphorylation of p38α MAPK by MKK6, western blot). It is filed as biochemical. The procedure: The assay was analysed by immunoblotting using antibodies against pan p38 MAPK and activated (phosphorylated) p38α MAPK. […] The reaction is initiated by the addition of ATP and MKK6 and proceeds for 15 minutes.
p38α MAPK activation (phosphorylation) by MKK6, sequence (Q16539 whole entry): as above
The assay was analysed by immunoblotting using antibodies against pan p38 MAPK and phosphorylated p38α MAPK.
The reaction was started by the addition of active MKK6 (5 ng) and ATP (100 μM). After 30 minutes incubation at room temperature, the reaction was stopped with ethylenediaminetetraacetic acid (EDTA) (10 mM). Phosphorylation of p38 MAPK was analysed by Western blotting.
Reaction samples were mixed 1:1 with Laemmli loading buffer, including β-mercaptoethanol (Biorad). Samples were heated at 95° C. for 5 minutes and 80 ng of protein was resolved using sodium dodecyl sulfate polyacrylamide gel electrophoresis (SDS-PAGE) gels (Biorad) at 200 V for 90 minutes. Proteins were transferred (100 V, 1 hour) to a polyvinylidene difluoride (PVDF) membrane (Merck). Membranes were incubated in blocking buffer (5% skim milk in Tris-buffered saline with Tween 20 (TBST), 1 hour, room temperature) and washed in TBST. Membranes were incubated with primary antibodies against total and phosphorylated p38 MAPK (1:1,000, Cell Signaling Technology) overnight at 4° C. Membranes were washed 4×15 minutes in TBST and probed with a secondary anti-mouse antibody at 1:2,000 dilution for 1 hour at room temperature, followed by washing in TBST (4×15 minutes). Signal detection was done with Western Lightning plus-ECL enhanced chemiluminescent substrate (Perkin Elmer) with the ChemiDoc Imaging System (BioRad).

Setting [10] is: 150 mg/kg twice daily oral gavage.
[11] abbreviates: NADPH-dependent, read-out: Apparent Degradation half-life.
Setting [12] is: read-out: In vitro CLint (μL/min/mg protein).
Where [13] appears, read: Table 5, read-out: Ki ± SEM (μM) to inactive p38α MAPK.
[14] abbreviates: Table 6, read-out: Ki ± SEM (μM) to inactive p38α.
Where [15] appears, read: Table 5, read-out: Ki ± SEM (μM) to active p38α MAPK.
Setting [16] is: Table 6, read-out: Ki ± SEM (μM) to active p38α.
Setting [17] is: read-out: Ki to active p38α MAPK.

In the case of `OCCC#Cc1cc(-c2ccncc2)c(-c2ccc(F)cc2)s1` [Compound 4.5, 4-(5-(4-Fluorophenyl)-4-(pyridin-4-yl)thiophen-2-yl)but-3-yn-1-ol], the “average body weight compared to vehicle group” value in data set [1] (setting [10]) is “no difference in the average body weight compared to the vehicle group”. In addition, in [1] (setting [10]), the “full blood, haemoglobin, haemocrit, red cell parameters and liver function, treated vs vehicle” value was “No differences were observed between treated and vehicle groups”. Moreover, in [1] (setting [10]), the liver function entry is on record as “no changes to liverfunction”. The “mass of the spleen” value in data set [1] (setting [10]) was “loss in the mass of the spleen”. Besides, the “weights of the kidneys, heart and liver” value in data set [1] (setting [10]) is “the same as the vehicle group”. Further, the tolerability in rats entry in data set [1] (300 mg/kg/day) is “well tolerated”. Also, the “Concentration in rat plasma” value is 1357 nM and 0.9 nM and 325 nM and 327 nM in data set [2] (1 hour post first dose); 8 nM and 7 nM and 147 nM and 5 nM in [2] (12 hours post first dose); 5 nM and 424 nM and 58 nM and 6 nM in data set [2] (7 day trough); 7 nM and 105 nM and 32 nM and 14 nM in data set [2] (14 day trough). For the same compound, in data set [2] (intake of 300 mg/kg/day, rat), the “peak plasma levels relative to the enzyme IC50 value” is “two to nine times higher”. Also, the “Microsome predicted EH” value in [3] is 0.89; in data set [5], 0.78; in data set [6], 0.58. Moreover, the half-life in [3] (setting [11]) came to 9 min; in [5] (setting [11]) it was 16 min; in data set [6] (setting [11]) it was 71 min. Further, the results for the microsomal CLint in [3] (setting [12]), in data set [5] (setting [12]) and in data set [6] (setting [12]) were 184 µL/min/mg, 110 µL/min/mg and 24 µL/min/mg, respectively. The NCF cell viability result in data set [4] is “no affect on NCF cell viability”.

`Nc1nc(F)c(F)c(-c2cc(-c3ccncc3)c(-c3ccc(F)cc3)s2)c1F` [Compound 5.20, 3,5,6-Trifluoro-4-(5-(4-fluorophenyl)-4-(pyridin-4-yl)thiophen-2-yl)pyridin-2-amine]: the Ki in data set [7] (setting [13]) was found to be 0.66 ± 0.06 µM; in [7] (setting [14]) it was 0.66 ± 0.06 µM; in [8] (setting [15]), 0.21 ± 0.01 µM; in [8] (setting [16]) it was 0.21 ± 0.01 µM; in [8] (setting [17]), 0.2 µM. Further, the “inhibition of p38α MAPK activation (phosphorylation)” value (from here on “inhibition”) in data set [9] (10 μM concentration) is “inhibition of p38α MAPK activation”.

As for `OCCCCc1cc(-c2ccncc2)c(-c2ccc(F)cc2)s1` [Compound 5.9, 4-(5-(4-Fluorophenyl)-4-(pyridin-4-yl)thiophen-2-yl)butan-1-ol], the Ki in data set [7] (setting [13]) was found to be 0.98 ± 0.02 µM; in [7] (setting [14]) it was 0.98 ± 0.02 µM; in [8] (setting [15]), 0.25 ± 0.04 µM; in data set [8] (setting [16]), 0.25 ± 0.04 µM; in [8] (setting [17]) it was 0.25 µM. Also, the “inhibition” value in [9] (10 μM concentration) is listed as “inhibition of p38α MAPK activation”.

Consider `O=C(CCCO)c1cc(-c2ccncc2)c(-c2ccc(F)cc2)s1` [Compound 5.10, 1-(5-(4-Fluorophenyl)-4-(pyridin-4-yl)thiophen-2-yl)-4-hydroxybutan-1-one], for which the Ki in [7] (setting [13]) was found to be 2.7 ± 0.3 µM; in data set [7] (setting [14]) it was 2.7 ± 0.3 µM; in [8] (setting [15]) it was 0.67 ± 0.03 µM; in [8] (setting [16]) it was 0.67 ± 0.03 µM; in data set [8] (setting [17]), 0.67 µM. The “inhibition” value in [9] (10 μM concentration) is “inhibition of p38α MAPK activation”.

In the case of `O=C(c1ccccc1)c1cc(-c2ccncc2)c(-c2ccc(F)cc2)s1` [Compound 5.16, (5-(4-Fluorophenyl)-4-(pyridin-4-yl)thiophen-2-yl) (phenyl)methanone], the Ki in [7] (setting [13]) worked out at 5 ± 2 µM; in data set [7] (setting [14]) it was 5 ± 2 µM; in data set [8] (setting [15]), 2.8 ± 0.1 µM; in data set [8] (setting [16]), 2.8 ± 0.1 µM. The “inhibition” value in data set [9] (10 μM concentration) is reported as “inhibition of p38α MAPK activation”.

Consider `Nc1nc(N)c(F)c(-c2cc(-c3ccncc3)c(-c3ccc(F)cc3)s2)c1F` [Compound 5.21, 3,5-Difluoro-4-(5-(4-fluorophenyl)-4-(pyridin-4-yl)thiophen-2-yl)pyridine-2,6-diamine], for which the Ki turned out to be 0.47 ± 0.01 µM in data set [7] (setting [13]); 0.47 ± 0.01 µM in data set [7] (setting [14]); 0.47 µM in [7] (read-out: Ki to inactive non-phosphorylated p38α MAPK); 0.16 ± 0.02 µM in data set [8] (setting [15]); 0.16 ± 0.02 µM in [8] (setting [16]); 0.16 µM in [8] (setting [17]). The “inhibition” value in data set [9] (1 μM concentration) was “significant inhibition”; in [9] (10 μM concentration), “inhibition of p38α MAPK activation”.
